How the values were obtained:
Type in all cases: physicochemical
[1] = Pressure filtration of crystallization slurry (overall filtration rate); details: for filtration rate: 75 ml slurry pressure filtered at ΔP=1 bar, polypropylene filter cloth pore size about 3 μm, filtration area 13 cm^2, filtrate volume/(time·filter area); for filterability improvement relative to prior art: relative to WO 2016/095924 example 2 slurry
Experimental: A sample of the crystallization slurry (75 ml) after completing the crystallization from examples 1-3 above, respectively, and from the prior art (according to WO 2016/095924 example 2, with the difference that the procedure was conducted at 35° C. instead of room temperature and the concentrated syrup was of 62° Bx (140.2 g; containing 48.8 wt % of 2′-FL, 1.3 wt % of lactose and 5.4 wt % of DFL)) was collected and pressure filtered at ΔP=1 bar using a polypropylene filter cloth with a pore size of about 3 μm and a filtration area of 13 cm^2, and the time until the beginning of the liquid-gas mass transfer was measured. The filterability of the slurries was compared by calculating an overall filtration rate according to the following equation: filtrate volume [cm^3]/(time [sec]·filter area [cm^2]).

[2] = Loss on drying of wet filter cake; details: for LoD relative to prior art: relative to WO 2016/095924 example 2 filter cake
Experimental: A sample of the slurry (75 ml) was collected and pressure filtered at 1 bar. Another sample of the slurry (75 ml) was collected, pressure filtered at 1 bar and the filter cake was washed with acetic acid (28 g). The washed and the unwashed solid wet filter cakes were dried overnight at 65° C. and 50 mbar generating loss on drying (LoD) of 17.3% and 23.2 respectively. The concentrations of 2′-FL and other impurities in the mother liquor as well as dried solids were assayed via HPLC. The unwashed dried crystalline material contained 95.3% of 2′-FL and yielded 81.5% of crystalline 2′-FL polymorph II, while the purity of the washed filter cake increased to 97.0%.
Then the filtration was continued for 60 sec. The so-obtained solid wet filter cake was dried overnight (14 hours) at 65° C. and 50 mbar, and loss of drying was determined (see data in the table below).

[3] = Water content of dried crystal powder by Karl-Fischer titration; details: dried crystals
Experimental: (§1) The water content of dried crystal powder was measured by Karl-Fischer titration. Residual AcOH content was measured using Megazyme K-ACETRM 07/12.

[4] = Residual AcOH content (Megazyme K-ACETRM 07/12); details: dried crystals
Experimental: as §1

[5] = filter cake washed with acetic acid, dried overnight at 65° C. and 50 mbar
[6] = unwashed solid wet filter cake dried overnight (14 hours) at 65° C. and 50 mbar

Row | filtration rate [1] | filterability improvement relative to prior art [1] | LoD (loss on drying) [2, 5] | LoD relative to prior art [2] | LoD (loss on drying) [2, 6] | H2O content [3] | AcOH content [4] | SMILES
1 | 0.39 cm/s | 6.12x | 17.3% | 0.44-fold fold lower | 23.2% | 0.06 wt % | 0.15 wt % | C[C@@H]1OC(O[C@H]2[C@H](O[C@H]3[C@H](O)[C@@H](O)C(O)O[C@@H]3CO)O[C@H](CO)[C@H](O)[C@@H]2O)[C@@H](O)[C@H](O)[C@@H]1O (single isomer, unassigned) [Example 1, 2′-O-fucosyllactose]
2 | 0.62 cm/s | 9.78x | – | 0.46-fold fold lower | 24.7% | 0.05 wt % | 0.36 wt % | C[C@@H]1OC(O[C@H]2[C@H](O[C@H]3[C@H](O)[C@@H](O)C(O)O[C@@H]3CO)O[C@H](CO)[C@H](O)[C@@H]2O)[C@@H](O)[C@H](O)[C@@H]1O (single isomer, unassigned) [Example 2, 2′-O-fucosyllactose]
3 | 0.16 cm/s | 2.57x | 16.1% | 0.42-fold fold lower | 22.5% | – | 0.11 wt % | C[C@@H]1OC(O[C@H]2[C@H](O[C@H]3[C@H](O)[C@@H](O)C(O)O[C@@H]3CO)O[C@H](CO)[C@H](O)[C@@H]2O)[C@@H](O)[C@H](O)[C@@H]1O (single isomer, unassigned) [Example 3, 2′-O-fucosyllactose]
4 | – | – | – | – | 48.5% | – | – | C[C@@H]1OC(O[C@H]2[C@H](O[C@H]3[C@H](O)[C@@H](O)C(O)O[C@@H]3CO)O[C@H](CO)[C@H](O)[C@@H]2O)[C@@H](O)[C@H](O)[C@@H]1O (single isomer, unassigned) [Example 4, 2′-O-fucosyllactose]
5 | 0.064 cm/s | – | – | – | 52.9% | 0.63 wt % | 0.58 wt % | C[C@@H]1OC(O[C@H]2[C@H](O[C@H]3[C@H](O)[C@@H](O)C(O)O[C@@H]3CO)O[C@H](CO)[C@H](O)[C@@H]2O)[C@@H](O)[C@H](O)[C@@H]1O (stereo partly drawn) [WO 2016/095924, 2′-O-fucosyllactose, reference compound]

— patent US12479878B2, “Crystallization of 2′-FL” (Glycom A/S, priority 2020, dated 2025)
